Assay results as given in PMC8296708, “The pan HDAC inhibitor Givinostat improves muscle function and histological parameters in two Duchenne muscular dystrophy murine models expressing different haplotypes of the LTBP4 gene” (Skeletal Muscle, 2021).
Read-outs that look alike come from different tables or passages of the source.

Tests used:
[1] = Pharmacokinetic study: plasma, blood and quadriceps Givinostat levels after single oral dose (LC-MS/MS); assay type: in vivo, mdx mice (C57BL/10ScSn-Dmd^mdx/J); details: mdx mice; for Kp: quadriceps muscle and plasma
Experimental: For the PK study, C57BL/10ScSn-Dmd^mdx/J (Stock No: 001801) 9-week-old male mice were purchased from The Jackson Laboratories (Bar Harbor, Maine, USA). After 5 days of acclimatization in the animal facility, mdx mice were randomized into 4 treatment groups (28 mice/group; 4 mice/cage) and 1 untreated group (4 mice) based on their BW. Animals were administered with single oral dose of Givinostat at 5, 10, 25, and 37.5 mg/kg and samples were collected at the following time points: 0.5, 1, 1.5, 2, 3, 4, and 6 h after administration.
In the PK study, formulations were prepared suspending Givinostat in 0.5% methylcellulose at the concentrations of 0.5, 1, 2.5, and 3.75 mg/mL. The administered volume was 10 mL/kg to obtain 5, 10, 25, and 37.5 mg/kg dosages.
Mice were maintained under isoflurane anesthesia. Blood samples were collected in two aliquots from the retro-orbital plexus of mice and transferred into tubes containing heparin as anticoagulant (100 USPunits/mL) and then mice were sacrificed by cervical dislocation. One aliquot of 50 μL was diluted with the same volume of water and immediately frozen in dry ice. This blood was analyzed in order to subtract the blood content of Givinostat from the muscle homogenate. The other aliquot of blood was centrifuged for 10 min at 13,000 rpm at 4 °C and plasma was separated and frozen in dry ice. The quadriceps of the right hindlimb was removed, weighed, and then washed twice in 1 mL of PBS pH 7.4 and dried with paper, then it was frozen in dry ice.
Givinostat was determined in mouse plasma (50 μL) following a protein precipitation (200 μL of 1% HCOOH in acetonitrile) and Ostro (Waters) plate filtration. The organic phase was evaporated under a stream of nitrogen; the residue was re-dissolved in the reconstitution solvent (100 μL of 25% CH3CN-75% H2O-0.05% TFA), and 5 μL was analyzed. Givinostat concentrations were measured by LC-MS/MS method, in the calibration range of 0.5–400 ng/mL.
Givinostat was determined in diluted blood (100 μL, 1:2 in water) with a liquid-liquid extraction. Samples were mixed and extracted with 2 mL of diethyl ether and centrifuged, and the organic phase was separated and evaporated under a stream of nitrogen. The residue was re-dissolved in the reconstitution solvent (150 μL of 25% CH3CN-75% H2O-0.05% TFA), sonicated, and filtered (regenerated cellulose syringe filters), and 5 μL was analyzed by LC-MS/MS method. The calibration range of the method was 1–200 ng/mL.
Mouse quadriceps were homogenized in PBS pH = 7.4 (1:10 w/v) with ultrasonic homogenizer (Sonoplus Mini20 - Bandelin) maintaining the samples in an ice bath. Quadricep homogenate (100 μL) was added with 200 μL of 0.5% TFA in CH3CN, vortexed, and centrifuged. Then, 100 μL of supernatant was diluted with H2O (1:2). Samples were filtered (regenerated cellulose syringe filters) and aliquots of 5 μL were analyzed. Givinostat concentrations were measured by LC-MS/MS method, in the calibration range of 1–40 ng/mL.
PK parameters were evaluated on mean curves using conventional non-compartmental methodology by the software KineticaTM v. 5.1. Quadriceps concentrations were expressed as nanograms per gram of muscle, this value was obtained by multiplying the homogenate concentrations obtained for the homogenate volume, then subtracting the residual blood content, as reported in literature, considering the measured blood concentrations and dividing for the muscle weight.

[2] = system: in vivo pulmonary fibrosis model; parameters: method as in McKinsey TA, unpublished results; details: administered with the diet; ref McKinsey TA, unpublished results; cited from earlier work
[3] = system: murine models of diastolic dysfunction; parameters: method as in PMID 29437146; details: drug admixed to the diet; cited from earlier work
[4] = system: mdx mice; assay: Histopathological evaluation of severity of myodystrophy in mdx mice; assay type: in vivo, mouse (C57BL/10ScSn-Dmd^mdx/J); details: T16
Experimental: In these experiments, the histopathological evaluation of muscle inflammatory infiltrate, adipose tissue deposition, regeneration, and degeneration of the muscular tissue was also performed. The severity of myodystrophy in the different muscles (TA, GAS and DIA) was quantified through a weighted histopathological method that considered some parameters scored by severity and extension of the injury: muscle degeneration/necrosis, regeneration, inflammatory infiltrate, interstitial reaction, and adipose tissue deposition. Each parameter was classified by severity (mild = 1, moderate = 2, and severe = 3) and extension (focal = 1, multifocal = 2, and diffuse = 3). The individual severity score was calculated for each animal and an average score per group was calculated.

[5] = male, C57BL/10ScSn-Dmd^mdx/J (mdx), mouse, blood, 5 mg/kg single oral dose
[6] = male, C57BL/10ScSn-Dmd^mdx/J (mdx), mouse, blood, 10 mg/kg single oral dose
[7] = male, C57BL/10ScSn-Dmd^mdx/J (mdx), mouse, blood, 25 mg/kg single oral dose
[8] = male, C57BL/10ScSn-Dmd^mdx/J (mdx), mouse, blood, 37.5 mg/kg single oral dose
[9] = male, C57BL/10ScSn-Dmd^mdx/J (mdx), mouse, plasma, 5 mg/kg single oral dose
[10] = male, C57BL/10ScSn-Dmd^mdx/J (mdx), mouse, plasma, 10 mg/kg single oral dose
[11] = male, C57BL/10ScSn-Dmd^mdx/J (mdx), mouse, plasma, 25 mg/kg single oral dose
[12] = male, C57BL/10ScSn-Dmd^mdx/J (mdx), mouse, plasma, 37.5 mg/kg single oral dose

blood plasma ratio ([1]; male, C57BL/10ScSn-Dmd^mdx/J (mdx), mouse, blood and plasma, 5 mg/kg single oral dose, read-out: AUCtot Blood/Plasma ratio): 1.6
blood plasma ratio ([1]; male, C57BL/10ScSn-Dmd^mdx/J (mdx), mouse, blood and plasma, 25 mg/kg single oral dose, read-out: AUCtot Blood/Plasma ratio): 1.5
blood plasma ratio ([1]; male, C57BL/10ScSn-Dmd^mdx/J (mdx), mouse, blood and plasma, 37.5 mg/kg single oral dose, read-out: AUCtot Blood/Plasma ratio): 1.4
blood plasma ratio ([1]; male, C57BL/10ScSn-Dmd^mdx/J (mdx), mouse, blood and plasma, mean over 5, 10, 25, 37.5 mg/kg oral doses, read-out: AUCtot Blood/Plasma ratio, mean): 1.6
Cmax ([1]; male, C57BL/10ScSn-Dmd^mdx/J (mdx), mouse, blood, po, 5 mg/kg, blood, 5 mg/kg single oral dose, read-out: Cmax): 35.1 ng/mL
Cmax ([1]; male, C57BL/10ScSn-Dmd^mdx/J (mdx), mouse, blood, po, 10 mg/kg, blood, 10 mg/kg single oral dose, read-out: Cmax): 170 ng/mL
Cmax ([1]; male, C57BL/10ScSn-Dmd^mdx/J (mdx), mouse, blood, po, 25 mg/kg, blood, 25 mg/kg single oral dose, read-out: Cmax): 639 ng/mL
Cmax ([1]; male, C57BL/10ScSn-Dmd^mdx/J (mdx), mouse, blood, po, 37.5 mg/kg, blood, 37.5 mg/kg single oral dose, read-out: Cmax): 1120 ng/mL
Cmax ([1]; male, C57BL/10ScSn-Dmd^mdx/J (mdx), mouse, plasma, po, 5 mg/kg, plasma, 5 mg/kg single oral dose, read-out: Cmax): 24 ng/mL
Cmax ([1]; male, C57BL/10ScSn-Dmd^mdx/J (mdx), mouse, plasma, po, 10 mg/kg, plasma, 10 mg/kg single oral dose, read-out: Cmax): 96.7 ng/mL
Cmax ([1]; male, C57BL/10ScSn-Dmd^mdx/J (mdx), mouse, plasma, po, 25 mg/kg, plasma, 25 mg/kg single oral dose, read-out: Cmax): 416 ng/mL
Cmax ([1]; male, C57BL/10ScSn-Dmd^mdx/J (mdx), mouse, plasma, po, 37.5 mg/kg, plasma, 37.5 mg/kg single oral dose, read-out: Cmax): 807 ng/mL
Kp ([1]; male, C57BL/10ScSn-Dmd^mdx/J (mdx), mouse, po, 5 mg/kg, 5 mg/kg single oral dose, read-out: AUCtot Muscle/Plasma ratio): 6.2
Kp ([1]; male, C57BL/10ScSn-Dmd^mdx/J (mdx), mouse, po, 10 mg/kg, 10 mg/kg single oral dose, read-out: AUCtot Muscle/Plasma ratio): 5.8
Kp ([1]; male, C57BL/10ScSn-Dmd^mdx/J (mdx), mouse, po, 25 mg/kg, 25 mg/kg single oral dose, read-out: AUCtot Muscle/Plasma ratio): 2.8
Kp ([1]; male, C57BL/10ScSn-Dmd^mdx/J (mdx), mouse, po, 37.5 mg/kg, 37.5 mg/kg single oral dose, read-out: AUCtot Muscle/Plasma ratio): 3.2
Kp ([1]; male, C57BL/10ScSn-Dmd^mdx/J (mdx), mouse, po, 37.5 mg/kg, mean over 5, 10, 25, 37.5 mg/kg oral doses, read-out: AUCtot Muscle/Plasma ratio, mean): ~4.5
Cmax ([1]; male, C57BL/10ScSn-Dmd^mdx/J (mdx), mouse, quadriceps muscle, po, 5 mg/kg, muscle (quadriceps), 5 mg/kg single oral dose, read-out: Cmax): 117 ng/g
Cmax ([1]; male, C57BL/10ScSn-Dmd^mdx/J (mdx), mouse, quadriceps muscle, po, 10 mg/kg, muscle (quadriceps), 10 mg/kg single oral dose, read-out: Cmax): 197 ng/g
Cmax ([1]; male, C57BL/10ScSn-Dmd^mdx/J (mdx), mouse, quadriceps muscle, po, 25 mg/kg, muscle (quadriceps), 25 mg/kg single oral dose, read-out: Cmax): 607 ng/g
Cmax ([1]; male, C57BL/10ScSn-Dmd^mdx/J (mdx), mouse, quadriceps muscle, po, 37.5 mg/kg, muscle (quadriceps), 37.5 mg/kg single oral dose, read-out: Cmax): 1180 ng/g
blood plasma ratio ([1]; male, C57BL/10ScSn-Dmd^mdx/J (mdx), mouse, whole blood and plasma, 10 mg/kg single oral dose, read-out: AUCtot Blood/Plasma ratio): 1.8
AUC [1, 5]: 156 ng·h/mL
Tmax [1, 5]: 3 h
AUC [1, 6]: 458 ng·h/mL
Tmax [1, 6]: 2 h
AUC [1, 7]: 1810 ng·h/mL
Tmax [1, 7]: 1.5 h
AUC [1, 8]: 2180 ng·h/mL
Tmax [1, 8]: 0.5 h
Tmax ([1]; male, C57BL/10ScSn-Dmd^mdx/J (mdx), mouse, muscle (quadriceps), 5 mg/kg single oral dose): 3 h
Tmax ([1]; male, C57BL/10ScSn-Dmd^mdx/J (mdx), mouse, muscle (quadriceps), 10 mg/kg single oral dose): 2 h
Tmax ([1]; male, C57BL/10ScSn-Dmd^mdx/J (mdx), mouse, muscle (quadriceps), 25 mg/kg single oral dose): 2 h
Tmax ([1]; male, C57BL/10ScSn-Dmd^mdx/J (mdx), mouse, muscle (quadriceps), 37.5 mg/kg single oral dose): 0.5 h
AUC [1, 9]: 95.2 ng·h/mL
Tmax [1, 9]: 0.5 h
AUC [1, 10]: 261 ng·h/mL
Tmax [1, 10]: 2 h
AUC [1, 11]: 1230 ng·h/mL
Tmax [1, 11]: 1.5 h
AUC [1, 12]: 1510 ng·h/mL
Tmax [1, 12]: 0.5 h
AUCtot Muscle/Plasma ratio, mean ([1]; mean over 5, 10, 25, 37.5 mg/kg oral doses, listed as ITF2357): 4.5
AUCtot ([1]; muscle (quadriceps), 5 mg/kg single oral dose): 594.4 ng·h/g
AUCtot ([1]; muscle (quadriceps), 10 mg/kg single oral dose): 1511.9 ng·h/g
AUCtot ([1]; muscle (quadriceps), 25 mg/kg single oral dose): 3511.2 ng·h/g
AUCtot ([1]; muscle (quadriceps), 37.5 mg/kg single oral dose): 4804.6 ng·h/g
Cmax ([1]; plasma, 5 mg/kg single oral dose, listed as ITF2357, 5 mg/kg): 24.17 ng/mL
Cmax ([1]; plasma, 37.5 mg/kg single oral dose, listed as ITF2357, 37.5 mg/kg): 807.39 ng/mL
Structure (SMILES): CCN(CC)Cc1ccc2cc(COC(=O)Nc3ccc(C(=O)NO)cc3)ccc2c1 [Givinostat]
Detectability in plasma, blood and muscle samples after oral treatment ([1]; all doses investigated (5-37.5 mg/kg p.o.)): detectable in all plasma, blood, and muscle samples up to 6 h
Activity in in vivo pulmonary fibrosis model [2]: inactive
Efficacy in two murine models of diastolic dysfunction with preserved ejection fraction [3]: highly efficacious
Histological evaluation of inflammatory infiltrate, adipose tissue deposition, regeneration, degeneration [4]: not significantly different among the treatment groups
